Data set [1] is described as follows: Half life in healthy human plasma at 400 mg, po measured on day 1 post dose by liquid chromatography-tandem mass spectrometry. The class given is ADME, organism-based.
Data set [2] can be described thus: Apparent oral clearance in healthy human plasma at 400 mg, po qd for 14 days by liquid chromatography-tandem mass spectrometry. It is filed as ADME, organism-based.
For data set [3], the system named is Homo sapiens. In words: Volume of distribution in healthy human plasma at 400 mg, po qd for 14 days by liquid chromatography-tandem mass spectrometry. It is filed as ADME, organism-based. The following applies: in vivo, 336 h.
Data set [4] is described as follows: Apparent oral clearance in healthy human plasma at 400 mg, po measured on day 1 post dose by liquid chromatography-tandem mass spectrometry. It is filed as ADME, organism-based.
For data set [5], the system named is Homo sapiens. In words: Volume of distribution in healthy human plasma at 400 mg, po measured on day 1 post dose by liquid chromatography-tandem mass spectrometry. It is filed as ADME, organism-based. The following applies: in vivo.
Data set [6] is described as follows: Tmax in healthy human plasma at 400 mg, po measured on day 1 post dose by liquid chromatography-tandem mass spectrometry. It is filed as ADME, organism-based.
Data set [7] in a line: Tmax in healthy human plasma at 400 mg, po qd for 14 days by liquid chromatography-tandem mass spectrometry. The class given is ADME, organism-based.
Data set [8] is described as follows: Cmax in healthy human plasma at 400 mg, po measured on day 1 post dose by liquid chromatography-tandem mass spectrometry. The class given is ADME, organism-based. On the set-up: dose 400 mg, route oral.
The nature of data set [9]: Cmax in healthy human plasma at 400 mg, po qd for 14 days by liquid chromatography-tandem mass spectrometry. The class given is ADME, organism-based. On the set-up: dose 400 mg, route oral.
The nature of data set [10]: Half life in healthy human plasma at 400 mg, po qd for 14 days by liquid chromatography-tandem mass spectrometry. It is filed as ADME, organism-based.
A short description of data set [11]: Ratio of drug concentration in PBMCs to plasma of healthy human administered at 400 mg, po measured after 24 hrs on day 1 post dose. The class given is ADME, organism-based, PBMC.
Data set [12] in a line: Ratio of drug concentration in PBMCs to plasma of healthy human administered at 400 mg, po measured after 5 hrs on day 1 post dose. It is filed as ADME, organism-based, PBMC.
A short description of data set [13]: Ratio of drug concentration in PBMCs to plasma of healthy human administered at 400 mg, po qd for 14 days measured after 5 hrs post last dose. It is filed as ADME, organism-based, PBMC.
Data set [14] in a line: Drug concentration in PBMCs of healthy human at 400 mg, po measured after 5 hrs on day 1 post dose by liquid chromatography-tandem mass spectrometry. The note with it: read-out: Drug uptake. The class given is ADME, organism-based, PBMC.
Data set [15] is described as follows: Drug concentration in PBMCs of healthy human at 400 mg, po ad for 14 days measured after 5 hrs post last dose by liquid chromatography-tandem mass spectrometry. The class given is ADME, organism-based, PBMC. The note with it: read-out: Drug uptake.
The nature of data set [16]: Drug concentration in PBMCs of healthy human at 400 mg, po measured after 24 hrs on day 1 post dose by liquid chromatography-tandem mass spectrometry. The note with it: read-out: Drug uptake. It is filed as ADME, organism-based, PBMC.
Data set [17] in a line: Drug concentration in PBMCs of healthy human at 400 mg, po ad for 14 days measured after 24 hrs post last dose by liquid chromatography-tandem mass spectrometry. It is filed as ADME, organism-based, PBMC. The note with it: read-out: Drug uptake.
Data set [18] relates to Plasma. In words: Fraction unbound in healthy human plasma at 400 mg, po measured on day 1 post dose by liquid chromatography-tandem mass spectrometry. The class given is ADME, organism-based. The note with it: in vivo.
Data set [19] concerns Plasma. Briefly: Fraction unbound in healthy human plasma at 400 mg, po qd for 14 days by liquid chromatography-tandem mass spectrometry. The note with it: in vivo, 336 h. The class given is ADME, organism-based.
Data set [20] deals with Homo sapiens. Briefly: Reduction in ABCB1 mRNA expression in healthy human at 400 mg, po qd for 14 days by RT-PCR. The class given is ADME, organism-based. The following applies: in vivo, 336 h.
Data set [21] relates to Homo sapiens. Briefly: Reduction in ABCC1 mRNA expression in healthy human at 400 mg, po qd for 14 days by RT-PCR. The class given is ADME, organism-based. The note with it: in vivo, 336 h.
The subject of data set [22] is Homo sapiens. In words: Reduction in ABCC2 mRNA expression in healthy human at 400 mg, po qd for 14 days by RT-PCR. It is filed as ADME, organism-based. The following applies: in vivo, 336 h.
For data set [23], the system named is Homo sapiens. In words: Effect on P-gp activity in PBMCs isolated from healthy human receiving compound dose at 400 mg, po qd for 14 days by rhodamine -123 efflux assay. The following applies: in vivo, 336 h. It is filed as ADME, organism-based.
Data set [24] can be described thus: Ratio of drug concentration in PBMCs to plasma of healthy human administered at 400 mg, po qd for 14 days measured after 24 hrs post last dose. The class given is ADME, organism-based, PBMC.

For orientation: half-life means how long it takes for the measured level to halve. One may read the CL/F as the apparent clearance, not corrected for the fraction that reaches the circulation. The Tmax is the time at which the peak concentration occurs. As usually defined, the Cmax is the peak of the concentration-time curve. By Kp is commonly meant tissue or fluid exposure divided by exposure in the circulation. `O=C1Nc2ccc(Cl)cc2[C@@](C#CC2CC2)(C(F)(F)F)O1` [EFAVIRENZ]: the figures for the half-life in data set [1] and in data set [10] were 78.7 h and 33 h, respectively. For the same compound, the values for the CL/F in data set [2] and in data set [4] were 148 mL/min and 70.7 mL/min, respectively. Also, the Vd was determined as 401.6 L in the data set on Homo sapiens [3] and 462.8 L with Homo sapiens [5]. For the same compound, the Tmax in [6] amounted to 2.3 h; in data set [7] it was 2.2 h. Besides, the values for the Cmax in data set [8] and in [9] were 2740 ng/mL and 3760 ng/mL, respectively. Moreover, the values for the Kp at 24 h in [11] and in data set [24] were 1.53 and 1.36, respectively. The concentration ratio (Kp) at 5 h in data set [12] was determined as 1.63; in data set [13] it was 1.76. For the same compound, the concentration at 5 h in [14] was 1470 ng/mL; in data set [15], 3600 ng/mL. Further, the figures for the concentration at 24 h in data set [16] and in data set [17] were 974 ng/mL and 2030 ng/mL, respectively. Also, the values for the Fu in the data set on Plasma [18] and with Plasma [19] were 0.47% and 0.52%, respectively. The Activity entry in the data set on Homo sapiens [20], in the data set on Homo sapiens [21], in the data set on Homo sapiens [22] and with Homo sapiens [23] was “Non-toxic” each time.

The values above are taken from ChEMBL document CHEMBL1671732, “No evidence for induction of ABC transporters in peripheral blood mononuclear cells in humans after 14 days of efavirenz treatment” (Antimicrob Agents Chemother, 2010).
